Converted amounts (≈) assume the structure as drawn. Where a SMILES comes first, the peptide text is derived from it. [ ]: non-standard residue; d: D form. NMeF = CN[C@@H](Cc1ccccc1)C(=O)O; NMeA = CN[C@@H](C)C(=O)O; dNMeA = CN[C@H](C)C(=O)O; Sar = CNCC(=O)O
Columns and labels:
Assay type in all cases: physicochemical
[1] = Decadiene/water partition coefficient, logD of compound at pH 7.4 by HPLC analysis
[2] = Solubility of the compound by high-throughput equilibrium solubility assay
[3] = Octanol/water partition coefficient, logD of compound at pH 7.4 by HPLC analysis

SMILES | logD hydrocarbon water [1] | solubility thermodynamic [2] | logD [3]
CC(C)C[C@@H]1NC(=O)[C@H]([C@@H](C)O)N(C)C(=O)[C@H]2CCCN2C(=O)[C@H](CC(C)C)NC(=O)[C@H]([C@@H](C)O)N(C)C(=O)[C@H](CC(C)C)NC(=O)[C@H](C)N(C)C(=O)[C@H]2CCCN2C(=O)[C@H](CC(C)C)NC(=O)[C@H]([C@@H](C)O)N(C)C1=O | 0.4 | 827 µM (≈ 891 µg/mL) | –
CC(C)C[C@@H]1NC(=O)[C@H](C)N(C)C(=O)[C@H]2CCCN2C(=O)[C@H](CC(C)C)NC(=O)[C@H](C)N(C)C(=O)[C@H]([C@@H](C)O)NC(=O)[C@H](C)N(C)C(=O)[C@H]2CCCN2C(=O)[C@H](CC(C)C)NC(=O)[C@H](C)N(C)C1=O | 0.4 | > 1000 µM | 2.7
CC(C)C[C@@H]1NC(=O)[C@H](C)N(C)C(=O)[C@H]2CCCN2C(=O)[C@H](CC(C)C)NC(=O)[C@H](C)N(C)C(=O)[C@H](CC(C)C)NC(=O)[C@H]([C@@H](C)O)N(C)C(=O)[C@H]2CCCN2C(=O)[C@H](CC(C)C)NC(=O)[C@H]([C@@H](C)O)N(C)C1=O | 1.2 | > 1000 µM | –
CC(C)C[C@@H]1NC(=O)[C@H](C)N(C)C(=O)[C@H](CC(C)C)NC(=O)[C@H]2CCCN2C(=O)[C@@H]2CCCN2C(=O)[C@H](CC(C)C)NC(=O)[C@H](C)N(C)C(=O)[C@H](CC(C)C)NC(=O)[C@H](C(C)C)N(C)C(=O)[C@@H](C)N(C)C1=O | 3.1 | 92 µM (≈ 93.4 µg/mL) | 5.1
CC(C)C[C@@H]1NC(=O)[C@H](C)N(C)C(=O)[C@H]2CCCN2C(=O)[C@H](CC(C)C)NC(=O)[C@H](C)N(C)C(=O)[C@H](CC(C)C)NC(=O)[C@H](C)N(C)C(=O)[C@H]2CCCN2C(=O)[C@H]([C@@H](C)O)NC(=O)[C@H](C)N(C)C1=O | 0.1 | > 1000 µM | 2.6
CC(C)C[C@@H]1NC(=O)[C@H](C(C)C)N(C)C(=O)[C@H]2CCCN2C(=O)[C@H](CC(C)C)NC(=O)[C@H](C)N(C)C(=O)[C@H](CC(C)C)NC(=O)[C@H](C(C)C)N(C)C(=O)[C@H]2CCCN2C(=O)[C@H](CC(C)C)NC(=O)[C@H](C)N(C)C1=O | 3.8 | 57 µM (≈ 59.5 µg/mL) | 5.1
CC(C)C[C@@H]1NC(=O)[C@H](C)N(C)C(=O)[C@H]2CCCN2C(=O)[C@H](CC(C)C)NC(=O)[C@H](C)N(C)C(=O)[C@H](CC(C)C)NC(=O)[C@H](C)N(C)C(=O)[C@H]2CCCN2C(=O)[C@H](CC(C)C)NC(=O)[C@H]([C@@H](C)O)N(C)C1=O | 1.7 | 763 µM (≈ 776 µg/mL) | –
CC(C)C[C@@H]1NC(=O)[C@H]([C@@H](C)O)N(C)C(=O)[C@H]2CCCN2C(=O)[C@H](CC(C)C)NC(=O)[C@H](C)N(C)C(=O)[C@H](CC(C)C)NC(=O)[C@H]([C@@H](C)O)N(C)C(=O)[C@H]2CCCN2C(=O)[C@H](CC(C)C)NC(=O)[C@H](C)N(C)C1=O | 1.2 | 884 µM (≈ 926 µg/mL) | 3.8
CC(C)C[C@@H]1NC(=O)[C@@H]2CCCN2C(=O)[C@H]2CCCN2C(=O)[C@H](CC(C)C)NC(=O)[C@H](C)N(C)C(=O)[C@H](CC(C)C)NC(=O)[C@@H]2CCCN2C(=O)[C@H]2CCCN2C(=O)[C@H](CC(C)C)NC(=O)[C@H](C)N(C)C1=O | 1.6 | 220 µM (≈ 222 µg/mL) | 4.3
CC(C)C[C@@H]1NC(=O)[C@H]([C@@H](C)O)N(C)C(=O)[C@H]2CCCN2C(=O)[C@H](CC(C)C)NC(=O)[C@H]([C@@H](C)O)N(C)C(=O)[C@H](CC(C)C)NC(=O)[C@H]([C@@H](C)O)N(C)C(=O)[C@H]2CCCN2C(=O)[C@H](CC(C)C)NC(=O)[C@H]([C@@H](C)O)N(C)C1=O | -0.8 | > 1000 µM | –
CC(C)C[C@@H]1NC(=O)[C@H](C)N(C)C(=O)[C@H]2CCCN2C(=O)[C@H](CC(C)C)NC(=O)[C@H](C)N(C)C(=O)[C@H](CC(C)C)NC(=O)[C@H](C)N(C)C(=O)[C@@H]2C[C@@H](O)CN2C(=O)[C@H](CC(C)C)NC(=O)[C@H](C)N(C)C1=O | 0.2 | 910 µM (≈ 913 µg/mL) | 4.1
CC(C)C[C@@H]1NC(=O)[C@H](C(C)C)N(C)C(=O)[C@H]2CCCN2C(=O)[C@H](CC(C)C)NC(=O)[C@@H](C)N(C)C(=O)[C@H](CC(C)C)NC(=O)[C@H](C(C)C)N(C)C(=O)[C@H](C)N(C)C(=O)[C@H](CC(C)C)NC(=O)[C@@H](C)N(C)C1=O | 4 | 220 µM (≈ 227 µg/mL) | 5.2
CC(C)C[C@@H]1NC(=O)[C@H](C)N(C)C(=O)[C@H]2CCCN2C(=O)[C@H](CC(C)C)NC(=O)[C@H](C)N(C)C(=O)[C@H](CC(C)C)NC(=O)[C@H](C)N(C)C(=O)[C@H]2CCCN2C(=O)[C@H](CC(C)C)NC(=O)[C@H](C)N(C)C1=O | 2.5 | 794 µM (≈ 784 µg/mL) | 4.7
CC(C)C[C@@H]1NC(=O)[C@H](C)N(C)C(=O)[C@H]2CCCN2C(=O)[C@H](CC(C)C)NC(=O)[C@H]([C@@H](C)O)N(C)C(=O)[C@H](CC(C)C)NC(=O)[C@H](C)N(C)C(=O)[C@H]2CCCN2C(=O)[C@H](CC(C)C)NC(=O)[C@H]([C@@H](C)O)N(C)C1=O | 1 | 445 µM (≈ 466 µg/mL) | –
CC(C)C[C@@H]1NC(=O)[C@H](C)N(C)C(=O)[C@H](CC(C)C)NC(=O)[C@@H]2CCCN2C(=O)CN(C)C(=O)[C@H](CC(C)C)NC(=O)[C@H](C)N(C)C(=O)[C@H](CC(C)C)NC(=O)[C@@H]2CCCN2C(=O)CN(C)C1=O (cyclo(L[NMeA]L[Sar]PL[NMeA]L[Sar]P)) | 0.3 | > 1000 µM | –

Other lines, results leading:

logD hydrocarbon water [1] | solubility thermodynamic [2] | logD [3] | SMILES
3.7 | 65 µM (≈ 71.1 µg/mL) | 5.7 | CC(C)C[C@@H]1NC(=O)[C@H]([C@@H](C)O)N(C)C(=O)[C@H]2CCCN2C(=O)[C@H](CC(C)C)NC(=O)[C@H](C)N(C)C(=O)[C@H](CC(C)C)NC(=O)[C@H](Cc2ccccc2)N(C)C(=O)[C@H]2CCCN2C(=O)[C@H](CC(C)C)NC(=O)[C@H](C)N(C)C1=O
4 | 15 µM (≈ 16.9 µg/mL) | 5.4 | CC(C)C[C@@H]1NC(=O)[C@H](Cc2ccccc2)N(C)C(=O)[C@H]2CCCN2C(=O)[C@H](CC(C)C)NC(=O)[C@H](C)N(C)C(=O)[C@H]([C@@H](C)O)NC(=O)[C@H](Cc2ccccc2)N(C)C(=O)[C@H]2CCCN2C(=O)[C@H](CC(C)C)NC(=O)[C@H](C)N(C)C1=O
-0.6 | 320 µM (≈ 360 µg/mL) | 4.7 | CC(C)C[C@@H]1NC(=O)[C@H]([C@@H](C)O)N(C)C(=O)[C@@H]2C[C@@H](O)CN2C(=O)[C@H](CC(C)C)NC(=O)[C@H](C)N(C)C(=O)[C@H](CC(C)C)NC(=O)[C@H](Cc2ccccc2)N(C)C(=O)[C@@H]2C[C@@H](O)CN2C(=O)[C@H](CC(C)C)NC(=O)[C@H](C)N(C)C1=O
5 | 4 µM (≈ 4.68 µg/mL) | 5.7 | CC(C)C[C@@H]1NC(=O)[C@H](Cc2ccccc2)N(C)C(=O)[C@H]2CCCN2C(=O)[C@H](CC(C)C)NC(=O)[C@H](C)N(C)C(=O)[C@H](CC(C)C)NC(=O)[C@H](Cc2ccccc2)N(C)C(=O)[C@H]2CCCN2C(=O)[C@H](CC(C)C)NC(=O)[C@H]([C@@H](C)O)N(C)C1=O
3.6 | 20 µM (≈ 22.5 µg/mL) | 5.1 | CC(C)C[C@@H]1NC(=O)[C@H](Cc2ccccc2)N(C)C(=O)[C@H]2CCCN2C(=O)[C@H](CC(C)C)NC(=O)[C@H](C)N(C)C(=O)[C@H](CC(C)C)NC(=O)[C@H](Cc2ccccc2)N(C)C(=O)[C@H]2CCCN2C(=O)[C@H]([C@@H](C)O)NC(=O)[C@H](C)N(C)C1=O
3.8 | 560 µM (≈ 571 µg/mL) | 5.2 | CC(C)C[C@@H]1NC(=O)[C@H](C)N(C)C(=O)[C@H](CC(C)C)NC(=O)[C@H](C(C)C)N(C)C(=O)[C@@H](C)N(C)C(=O)[C@H](CC(C)C)NC(=O)[C@H](C)N(C)C(=O)[C@H](CC(C)C)NC(=O)[C@H](C(C)C)N(C)C(=O)[C@@H](C)N(C)C1=O
2.7 | 477 µM (≈ 459 µg/mL) | 4.6 | CC(C)C[C@@H]1NC(=O)[C@H](C)N(C)C(=O)[C@H](CC(C)C)NC(=O)[C@H](C)N(C)C(=O)[C@@H](C)N(C)C(=O)[C@H](CC(C)C)NC(=O)[C@H](C)N(C)C(=O)[C@H](CC(C)C)NC(=O)[C@H](C)N(C)C(=O)[C@@H](C)N(C)C1=O (cyclo(L[NMeA]L[dNMeA][NMeA]L[NMeA]L[dNMeA][NMeA]))
5.1 | 4 µM (≈ 4.46 µg/mL) | – | CC(C)C[C@@H]1NC(=O)[C@H](C)N(C)C(=O)[C@H](CC(C)C)NC(=O)[C@H](Cc2ccccc2)N(C)C(=O)[C@@H](C)N(C)C(=O)[C@H](CC(C)C)NC(=O)[C@H](C)N(C)C(=O)[C@H](CC(C)C)NC(=O)[C@H](Cc2ccccc2)N(C)C(=O)[C@@H](C)N(C)C1=O (cyclo(L[NMeA]L[dNMeA][NMeF]L[NMeA]L[dNMeA][NMeF]))
> 3.5 | 4 µM (≈ 4.56 µg/mL) | > 5.7 | CC(C)C[C@@H]1NC(=O)[C@H](Cc2ccccc2)N(C)C(=O)[C@H]2CCCN2C(=O)[C@H](CC(C)C)NC(=O)[C@H](C)N(C)C(=O)[C@H](CC(C)C)NC(=O)[C@H](Cc2ccccc2)N(C)C(=O)[C@H]2CCCN2C(=O)[C@H](CC(C)C)NC(=O)[C@H](C)N(C)C1=O (cyclo(L[NMeA]L[dP][NMeF]L[NMeA]L[dP][NMeF]))
